How the values were obtained:
SMARCA2 = SMARCA2 (Homo sapiens, UniProt P51531); test: HiBit assay in engineered HT1080 CRISPR knock-in cell, 6 hrs (B series), SMARCA2; assay type: cell-based; conditions: 6 hrs incubation; for DC50 / SMARC A2 HT1080 HiBit Dmax (%): HT1080 CRISPR knock-in cells; for DC50: read-out: SMARC A2 HT1080 HiBit DC50; for Dmax: HT-1080, HT1080 CRISPR knock-in cells, read-out: SMARC A2 HT1080 HiBit Dmax (%)
Procedure: (§1) The HiBit assay was performed using engineered HT1080 CRISPR knock-in cell utilizing the Nano-Glo HiBiT Lytic Detection System from Promega, Cat #N3040. Compounds were transferred, 25 nL DMSO or test compounds (final DMSO @ 0.1%) to intermediate plates (Corning3570) using ECHO550. Cells were seeded onto compounds at 2000 cells/25 μL/well and incubated for 6 hrs in a tissue culture incubator at 37° C. and 5% CO2. The LgBiT Protein was diluted at 1:100 and the Nano-Glo® HiBIT Lytic Substrate 1:50 into an appropriate volume of room temperature using the Nano-Glo® HiBiT Lytic Buffer. At the end of compound incubation time, 15 ul of the detection reagent was added to each well (without LgBiT for negative control wells) using the Thermo Scientific multidrop combi. The plate was shaken for 10 mins at RT using Combi. After briefly centrifugation (2000 rpm 1 mins), plate was read on Envision (Ultrasensitive luminescence model).

SMARCA4 = SMARCA4 (Homo sapiens, UniProt P51532); test: HiBit assay in engineered HT1080 CRISPR knock-in cell, 6 hrs (B series), SMARCA4; assay type: cell-based; conditions: 6 hrs incubation; for DC50 / SMARC A4 HT1080 HiBit Dmax(%): HT1080 CRISPR knock-in cells; for DC50: read-out: SMARC A4 HT1080 HiBit DC50; for Dmax: HT-1080, HT1080 CRISPR knock-in cells, read-out: SMARC A4 HT1080 HiBit Dmax(%)
Procedure: as §1

Sequence of SMARCA2 (P51531 whole entry): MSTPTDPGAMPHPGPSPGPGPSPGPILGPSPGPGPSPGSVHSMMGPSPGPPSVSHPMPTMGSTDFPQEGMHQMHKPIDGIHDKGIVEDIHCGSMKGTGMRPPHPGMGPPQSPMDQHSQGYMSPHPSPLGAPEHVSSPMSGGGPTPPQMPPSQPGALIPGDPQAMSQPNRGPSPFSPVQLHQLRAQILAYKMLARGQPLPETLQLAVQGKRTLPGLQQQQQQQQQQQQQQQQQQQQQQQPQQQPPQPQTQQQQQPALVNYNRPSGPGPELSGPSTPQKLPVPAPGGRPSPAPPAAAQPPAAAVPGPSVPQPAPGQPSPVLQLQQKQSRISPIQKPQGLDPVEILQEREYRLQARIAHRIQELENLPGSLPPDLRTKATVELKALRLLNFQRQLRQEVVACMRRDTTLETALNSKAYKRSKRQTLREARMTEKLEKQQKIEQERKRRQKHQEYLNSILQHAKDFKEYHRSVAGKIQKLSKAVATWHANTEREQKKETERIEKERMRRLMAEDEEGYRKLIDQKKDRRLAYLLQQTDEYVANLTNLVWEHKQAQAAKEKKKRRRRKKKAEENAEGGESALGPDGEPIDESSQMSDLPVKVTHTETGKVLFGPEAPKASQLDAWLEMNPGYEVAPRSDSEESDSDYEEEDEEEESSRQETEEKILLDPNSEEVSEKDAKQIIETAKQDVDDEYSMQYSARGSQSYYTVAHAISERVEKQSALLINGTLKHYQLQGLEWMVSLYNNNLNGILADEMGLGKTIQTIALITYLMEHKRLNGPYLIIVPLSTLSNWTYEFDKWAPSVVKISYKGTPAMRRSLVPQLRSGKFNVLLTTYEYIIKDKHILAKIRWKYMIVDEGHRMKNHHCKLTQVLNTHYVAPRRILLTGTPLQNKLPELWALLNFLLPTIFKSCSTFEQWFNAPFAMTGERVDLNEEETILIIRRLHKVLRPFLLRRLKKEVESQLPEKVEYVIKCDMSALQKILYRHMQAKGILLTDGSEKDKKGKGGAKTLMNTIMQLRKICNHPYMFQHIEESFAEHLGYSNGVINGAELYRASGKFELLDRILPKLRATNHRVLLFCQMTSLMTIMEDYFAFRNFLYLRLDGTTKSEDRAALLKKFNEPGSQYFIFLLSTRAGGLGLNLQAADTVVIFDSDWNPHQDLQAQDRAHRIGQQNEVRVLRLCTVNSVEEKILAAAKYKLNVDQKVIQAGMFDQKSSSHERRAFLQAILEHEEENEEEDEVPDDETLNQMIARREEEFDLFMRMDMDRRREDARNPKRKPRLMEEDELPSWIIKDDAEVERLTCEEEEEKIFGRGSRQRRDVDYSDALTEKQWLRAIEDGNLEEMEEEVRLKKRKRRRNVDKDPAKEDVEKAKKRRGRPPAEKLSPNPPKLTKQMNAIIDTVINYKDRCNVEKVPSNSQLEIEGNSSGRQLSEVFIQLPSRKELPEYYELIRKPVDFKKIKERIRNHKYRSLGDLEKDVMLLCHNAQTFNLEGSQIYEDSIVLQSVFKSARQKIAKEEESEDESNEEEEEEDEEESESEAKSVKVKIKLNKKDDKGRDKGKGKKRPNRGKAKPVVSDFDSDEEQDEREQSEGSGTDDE
Sequence of SMARCA4 (P51532 whole entry): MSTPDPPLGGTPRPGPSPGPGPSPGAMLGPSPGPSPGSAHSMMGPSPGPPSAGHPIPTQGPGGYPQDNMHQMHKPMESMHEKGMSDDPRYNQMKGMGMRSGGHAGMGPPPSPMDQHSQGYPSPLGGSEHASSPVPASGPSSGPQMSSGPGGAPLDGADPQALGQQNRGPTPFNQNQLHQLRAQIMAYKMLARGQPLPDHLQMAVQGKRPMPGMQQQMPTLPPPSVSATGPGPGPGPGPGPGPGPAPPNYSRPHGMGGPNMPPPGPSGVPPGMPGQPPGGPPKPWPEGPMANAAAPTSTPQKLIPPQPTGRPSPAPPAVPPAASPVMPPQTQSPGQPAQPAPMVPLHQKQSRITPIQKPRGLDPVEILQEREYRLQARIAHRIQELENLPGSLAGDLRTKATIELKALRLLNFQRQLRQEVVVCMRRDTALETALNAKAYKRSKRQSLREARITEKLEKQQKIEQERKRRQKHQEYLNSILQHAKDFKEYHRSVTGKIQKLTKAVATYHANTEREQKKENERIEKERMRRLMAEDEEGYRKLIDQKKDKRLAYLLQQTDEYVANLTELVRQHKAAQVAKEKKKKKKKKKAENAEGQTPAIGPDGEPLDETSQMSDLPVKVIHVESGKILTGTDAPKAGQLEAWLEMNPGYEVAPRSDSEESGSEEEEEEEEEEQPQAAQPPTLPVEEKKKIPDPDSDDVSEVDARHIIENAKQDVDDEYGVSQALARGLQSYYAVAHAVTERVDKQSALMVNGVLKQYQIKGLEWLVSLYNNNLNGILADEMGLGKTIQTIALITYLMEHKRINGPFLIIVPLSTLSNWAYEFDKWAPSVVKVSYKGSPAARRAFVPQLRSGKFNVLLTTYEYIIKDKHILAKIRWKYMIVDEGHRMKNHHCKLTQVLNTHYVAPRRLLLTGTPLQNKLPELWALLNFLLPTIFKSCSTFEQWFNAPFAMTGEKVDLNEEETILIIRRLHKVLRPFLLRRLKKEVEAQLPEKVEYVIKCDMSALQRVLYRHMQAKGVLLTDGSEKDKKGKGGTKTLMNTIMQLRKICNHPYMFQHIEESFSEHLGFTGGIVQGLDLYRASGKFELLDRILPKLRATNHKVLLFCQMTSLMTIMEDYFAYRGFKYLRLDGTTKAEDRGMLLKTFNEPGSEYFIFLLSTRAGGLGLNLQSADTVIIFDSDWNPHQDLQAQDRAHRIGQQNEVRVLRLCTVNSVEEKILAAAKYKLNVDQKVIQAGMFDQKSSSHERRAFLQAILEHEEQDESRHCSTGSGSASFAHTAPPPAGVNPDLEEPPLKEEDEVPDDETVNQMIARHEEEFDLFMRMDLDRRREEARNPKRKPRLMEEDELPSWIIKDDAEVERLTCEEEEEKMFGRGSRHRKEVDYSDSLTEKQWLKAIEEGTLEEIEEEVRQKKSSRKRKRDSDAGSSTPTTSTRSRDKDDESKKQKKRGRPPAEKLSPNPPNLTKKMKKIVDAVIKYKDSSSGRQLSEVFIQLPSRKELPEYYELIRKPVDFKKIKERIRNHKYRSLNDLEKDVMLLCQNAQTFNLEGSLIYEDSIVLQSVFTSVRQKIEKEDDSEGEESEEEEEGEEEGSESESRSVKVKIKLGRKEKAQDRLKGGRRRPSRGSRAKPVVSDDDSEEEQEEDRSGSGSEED

Row | Compound | DC50 (SMARCA2) | Dmax (SMARCA2) | DC50 (SMARCA4) | Dmax (SMARCA4) | SMARC A2 HT1080 HiBit Dmax (%) (SMARCA2) | SMARC A4 HT1080 HiBit Dmax(%) (SMARCA4)
1 | Cc1cc(C(C(=O)N2C[C@H](O)C[C@H]2C(=O)N[C@@H](C)c2ccc(-c3scnc3C#CCOCCOCCN3CCC(c4ccc5c(c4)-n4c(nc(=O)c6c(Cl)cccc64)C5(C)C)CC3)cc2)C(C)C)on1 (stereo partly drawn) [Compound B104, (2S,4R)—N—((S)-1-(4-(4-(3-(2-(2-(4-(4-chloro-7,7-dimethyl-5-oxo-5,7-dihydroindolo[1,2-a]quinazolin-10-yl)piperidin-1-yl)ethoxy)ethoxy)prop-1-yn-1-yl)thiazol-5-yl)phenyl)ethyl)-4-hydroxy-1-(3-methyl-2-(3-methylisoxazol-5-yl)butanoyl)pyrrolidine-2-carboxamide] | < 100 nM | > 90% | 100 to 500 nM | 70 to 90% | – | –
2 | Cc1nc(C)c(-c2ccc([C@H](C)NC(=O)[C@@H]3C[C@@H](O)CN3C(=O)[C@@H](n3cc([C@H]4CC[C@H](CN5CCC(c6ccc7c(c6)-n6c(nc(=O)c8c(Cl)cccc86)C7(C)C)CC5)CC4)nn3)C(C)(C)C)cc2)s1 [Compound B164, (2S,4R)-1-((S)-2-(4-((1r,4S)-4-((4-(4-chloro-7,7-dimethyl-5-oxo-5,7-dihydroindolo[1,2-a]quinazolin-10-yl)piperidin-1-yl)methyl)cyclohexyl)-1H-1,2,3-triazol-1-yl)-3,3-dimethylbutanoyl)-N-((S)-1-(4-(2,4-dimethylthiazol-5-yl)phenyl)ethyl)-4-hydroxypyrrolidine-2-carboxamide] | < 100 nM | > 90% | < 100 nM | 70 to 90% | – | –
3 | C=C[C@H](NC(=O)[C@@H]1C[C@@H](O)CN1C(=O)[C@@H](NC(=O)[C@H]1CC[C@H](CN2CCC(c3ccc4c(c3)C(C)(C)c3nc(=O)c5c(Cl)cccc5n3-4)CC2)CC1)C(C)(C)C)c1ccc(-c2scnc2C)cc1 [Compound B79, (2S,4R)-1-((S)-2-((11,4S)-4-((4-(4-chloro-7,7-dimethyl-5-oxo-5,7-dihydroindolo[1,2-a]quinazolin-9-yl)piperidin-1-yl)methyl)cyclohexane-1-carboxamido)-3,3-dimethylbutanoyl)-4-hydroxy-N-((S)-1-(4-(4-methylthiazol-5-yl)phenyl)allyl)pyrrolidine-2-carboxamide] | < 100 nM | 70 to 90% | 100 to 500 nM | < 50% | – | –
4 | CC(C)C(C(=O)N1C[C@H](O)C[C@H]1C(=O)N[C@@H](C)c1ccc(-c2ncnn2C)cc1)c1cc(OCCN2CCC(c3ccc4c(c3)C(C)(C)c3nc(=O)c5c(Cl)cccc5n3-4)CC2)no1 (stereo partly drawn) [Compound B75, (2S,4R)-1-(2-(3-(2-(4-(4-chloro-7,7-dimethyl-5-oxo-5,7-dihydroindolo[1,2-a]quinazolin-9-yl)piperidin-1-yl)ethoxy)isoxazol-5-yl)-3-methylbutanoyl)-4-hydroxy-N-((S)-1-(4-(1-methyl-1H-1,2,4-triazol-5-yl)phenyl)ethyl)pyrrolidine-2-carboxamide] | 100 to 500 nM | – | 100 to 500 nM | – | B (B (70-90% degradation)) | D (D (<50% degradation))
5 | Cc1ncsc1-c1ccc([C@H](CC(=O)NCCCN2CCC(c3ccc4c(c3)-n3c(nc(=O)c5c(Cl)cccc53)C4(C)C)CC2)NC(=O)[C@@H]2C[C@@H](O)CN2C(=O)[C@@H](NC(=O)C2(F)CC2)C(C)(C)C)cc1 [Compound B25, (2S,4R)-N-((S)-3-((3-(4-(4-chloro-7,7-dimethyl-5-oxo-5,7-dihydroindolo[1,2-a]quinazolin-10-yl)piperidin-1-yl)propyl)amino)-1-(4-(4-methylthiazol-5-yl)phenyl)-3-oxopropyl)-1-((S)-2-(1-fluorocyclopropane-1-carboxamido)-3,3-dimethylbutanoyl)-4-hydroxypyrrolidine-2-carboxamide] | 501 to 1000 nM | < 50% | 100 to 500 nM | < 50% | – | –
6 | Cc1ncsc1-c1ccc([C@H](C)NC(=O)[C@@H]2C[C@@H](O)CN2C(=O)[C@@H](c2cc(OCC3CCC(N4CCC(c5cccc6c5C(C)(C)c5nc(=O)c7c(Cl)cccc7n5-6)CC4)CC3)no2)C(C)C)cc1 (stereo partly drawn) [Compound B100, (2S,4R)-1-((R)-2-(3-((4-(4-(4-chloro-7,7-dimethyl-5-oxo-5,7-dihydroindolo[1,2-a]quinazolin-8-yl)piperidin-1-yl)cyclohexyl)methoxy)isoxazol-5-yl)-3-methylbutanoyl)-4-hydroxy-N-((S)-1-(4-(4-methylthiazol-5-yl)phenyl)ethyl)pyrrolidine-2-carboxamide] | < 100 nM | 70 to 90% | < 100 nM | < 50% | – | –
7 | Cc1ncsc1-c1ccc([C@H](C)NC(=O)[C@@H]2C[C@@H](O)CN2C(=O)C(c2cc(CN3CCC(c4ccc5c(c4)C(C)(C)c4nc(=O)c6c(Cl)cccc6n4-5)CC3)no2)C(C)C)cc1 (stereo partly drawn) [Compound B8, (2S,4R)-1-(2-(3-((4-(4-chloro-7,7-dimethyl-5-oxo-5,7-dihydroindolo[1,2-a]quinazolin-9-yl)piperidin-1-yl)methyl)isoxazol-5-yl)-3-methylbutanoyl)-4-hydroxy-N—((S)-1-(4-(4-methylthiazol-5-yl)phenyl)ethyl)pyrrolidine-2-carboxamide] | < 100 nM | > 90% | < 100 nM | 70 to 90% | – | –
8 | Cc1ncsc1-c1ccc([C@H](C)NC(=O)[C@@H]2C[C@@H](O)CN2C(=O)[C@@H](n2cc([C@H]3CC[C@H](CN4CCN(c5ccc6c(c5)-n5c(nc(=O)c7c(Cl)cccc75)C6(C)C)CC4)CC3)nn2)C(C)(C)C)cc1 [Compound B121, (2S,4R)-1-((S)-2-(4-((1r,4S)-4-((4-(4-chloro-7,7-dimethyl-5-oxo-5,7-dihydroindolo[1,2-a]quinazolin-10-yl)piperazin-1-yl)methyl)cyclohexyl)-1H-1,2,3-triazol-1-yl)-3,3-dimethylbutanoyl)-4-hydroxy-N-((S)-1-(4-(4-methylthiazol-5-yl)phenyl)ethyl)pyrrolidine-2-carboxamide] | < 100 nM | > 90% | < 100 nM | 70 to 90% | – | –
9 | Cc1cc(C(C(=O)N2C[C@H](O)C[C@H]2C(=O)N[C@@H](CCN2CCC(c3cccc4c3C(C)(C)c3nc(=O)c5c(Cl)cccc5n3-4)CC2)c2ccc(-c3scnc3C)cc2)C(C)C)on1 (stereo partly drawn) [Compound B166, (2S,4R)-N-((S)-3-(4-(4-chloro-7,7-dimethyl-5-oxo-5,7-dihydroindolo[1,2-a]quinazolin-8-yl)piperidin-1-yl)-1-(4-(4-methylthiazol-5-yl)phenyl)propyl)-4-hydroxy-1-(3-methyl-2-(3-methylisoxazol-5-yl)butanoyl)pyrrolidine-2-carboxamide] | 100 to 500 nM | – | 100 to 500 nM | – | B (B (70-90% degradation)) | B (B (70-90% degradation))
10 | Cc1ncsc1-c1ccc([C@H](C)NC(=O)[C@@H]2C[C@@H](O)CN2C(=O)[C@H](C(C)C)n2cc(CCN3CCC(c4ccc5c(c4)C(C)(C)c4nc(=O)c6c(Cl)cccc6n4-5)CC3)nn2)cc1 [Compound B17, (2S,4R)-1-((S)-2-(4-(2-(4-(4-chloro-7,7-dimethyl-5-oxo-5,7-dihydroindolo[1,2-a]quinazolin-9-yl)piperidin-1-yl)ethyl)-1H-1,2,3-triazol-1-yl)-3-methylbutanoyl)-4-hydroxy-N-((S)-1-(4-(4-methylthiazol-5-yl)phenyl)ethyl)pyrrolidine-2-carboxamide] | < 100 nM | > 90% | < 100 nM | > 90% | – | –

From patent US20260092071A1, “COMPOUNDS AND COMPOSITIONS AS SMARCA2/4 DEGRADERS AND USES THEREOF” (REGENTS OF THE UNIVERSITY OF MICHIGAN, priority 2022, published 2026)
